What all share (type): functional
Experiment [1] concerns Rattus norvegicus. Nature of the experiment: Compound was tested for inhibition of T-wave elevation in lysine-Vasopressin -Induced-Angina Pectoris model in rats when administered intraperitoneally. The note with it: for minimal effective dose: Rattus norvegicus, ip, read-out: MED.
Experiment [2] concerns Rattus norvegicus. The experiment in a line: Compound was tested for inhibition of T-wave elevation in lysine-Vasopressin -Induced-Angina Pectoris model in rats when administered perorally. The note with it: po, read-out: MED.
Experiment [3] is filed under the species Canis familiaris. Nature of the experiment: Minimum effective dose in propanol induced heart failure in left ventricular end diastolic pressure model of dog when dose given intradermally. The note with it: Canis lupus familiaris, Heart left ventricle; read-out: MED.
The species entered for experiment [4] is Canis familiaris. Nature of the experiment: Minimum effective dose in […] induced heart failure in left ventricular end diastolic pressure model of dog. The note with it: Canis lupus familiaris, Heart left ventricle; read-out: MED.

For `O=[N+]([O-])O[C@@H]1CO[C@H]2[C@@H]1OC[C@H]2N1CCN(CCCSc2ccccc2)CC1`, the minimal effective dose in experiment [1] was above 25 mg/kg.
`O=[N+]([O-])O[C@H]1CO[C@H]2[C@@H]1OC[C@H]2N1CCN(CCCSc2ccccc2)CC1` displayed an MED in experiment [1] above 25 mg/kg.
For the compound `O=[N+]([O-])O[C@@H]1CO[C@H]2[C@@H]1OC[C@@H]2N1CCN(CCCSc2ccccc2)CC1`, the minimal effective dose was above 25 mg/kg in experiment [1] and above 30 mg/kg in experiment [2].
With `O=[N+]([O-])O[C@H]1CO[C@@H]2C(N3CCN(CCCSc4ccccc4)CC3)CO[C@H]12` (single isomer, unassigned), the minimal effective dose amounted to 0.1 mg/kg in experiment [3], 12.5 mg/kg in experiment [1] and 10 mg/kg in experiment [2].
In the case of `O=[N+]([O-])O[C@H]1CO[C@H]2[C@@H]1OC[C@H]2O[N+](=O)[O-]` [ISOSORBIDE DINITRATE], the minimal effective dose in experiment [4] is above 0.3 mg/kg.

The values are drawn from ChEMBL document CHEMBL1126341, “Synthesis of stereoisomers of 1,4:3,6-dianhydrohexitol nitrate derivative, KF-14124” (1992).
